Experimental data as given in PMC2644304 (Nature chemical biology, 2009).

Target: AcsD (Dickeya chrysanthemi, UniProt Q93AT8)
Test: X-ray crystal structure of the complex
Assay type: binding
Conditions: co-crystal with sulfate and citrate; ATP site

Nc1ncnc2c1ncn2[C@@H]1O[C@H](CO)[C@@H](O)[C@H]1O [adenosine]
X-ray crystal structure of the complex: adenosine binds in the same pocket as seen in the ATP structure
